Our source for the Ki values is ChEMBL document CHEMBL4765470 (J Med Chem, 2021).

Starred links: 1 amine or outer side, 2 acyl side, 3 side chain; linkers in the order of their positions; H or OH if unused. Non-standard residues stand in square brackets, D forms with d. Residues, ends and D or L forms follow the SMILES beside them. *: point of attachment. Bpa = N[C@@H](Cc1ccc(C(=O)c2ccccc2)cc1)C(=O)O; β3hPhg = O=C(C[C@@H](N[*:1])c1ccccc1)[*:2]; Bip = N[C@@H](Cc1ccc(-c2ccccc2)cc1)C(=O)O; GABA(4S-Me) = C[C@@H](CCC(=O)[*:2])N[*:1]; X1 = O=C([C@]1(Cc2ccccc2)CCCN1[*:1])[*:2]; 1Nal = N[C@@H](Cc1cccc2ccccc12)C(=O)O; Tic = O=C(O)[C@@H]1Cc2ccccc2CN1; Pip = O=C(O)[C@@H]1CCCCN1; Nle = CCCC[C@H](N)C(=O)O; Aze = O=C(O)[C@@H]1CCN1; Ac3c = NC1(C(=O)O)CC1; Aib = CC(C)(N)C(=O)O; Bn = c1ccc(C*)cc1

The target in the experiment is T1, Apelin receptor (Homo sapiens, UniProt P35414).
T1 sequence (P35414 whole entry): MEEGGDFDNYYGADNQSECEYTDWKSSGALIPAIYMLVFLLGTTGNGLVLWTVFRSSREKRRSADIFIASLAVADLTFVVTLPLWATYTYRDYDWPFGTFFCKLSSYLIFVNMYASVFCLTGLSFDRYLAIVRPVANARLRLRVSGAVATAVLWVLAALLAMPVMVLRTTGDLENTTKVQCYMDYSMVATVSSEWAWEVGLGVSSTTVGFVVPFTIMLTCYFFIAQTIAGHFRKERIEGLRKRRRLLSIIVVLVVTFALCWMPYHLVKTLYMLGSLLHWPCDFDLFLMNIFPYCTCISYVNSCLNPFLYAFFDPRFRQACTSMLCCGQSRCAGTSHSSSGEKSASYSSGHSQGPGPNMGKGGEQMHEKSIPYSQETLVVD
As to the kind of experiment: Displacement of [125I] [NIe75, Tyr77]Pyr-apelin-13 from YFP-tagged human APJ receptor expressed in HEK293 cell membranes incubated for 1 hr by gamma counting based Cheng-Prusoff equation analysis.
`CCCC[C@H](N)C(=O)N1CCC[C@H]1C(=O)N[C@@H](CC(C)C)C(=O)N[C@@H](Cc1cnc[nH]1)C(=O)N[C@@H](CO)C(=O)N[C@@H](CCCNC(=N)N)C(=O)N[C@H](C(=O)N1CCC[C@H]1C(=O)N[C@@H](Cc1ccccc1)C(=O)N1C[C@H](OCc2ccccc2)C[C@H]1C(=O)O)C(C)C` returned an inhibition constant (Ki) of 38 nM. The value for `CCCC[C@H](N)C(=O)N1CCC[C@H]1C(=O)N[C@@H](CC(C)C)C(=O)N[C@@H](Cc1cnc[nH]1)C(=O)N[C@@H](CO)C(=O)N[C@@H](CCCNC(=N)N)C(=O)N[C@@H](CCC)C(=O)N1CCC[C@H]1C(=O)N[C@@H](Cc1ccccc1)C(=O)N1CCC[C@H]1C(=O)O` was 69 nM; that for `CCCC[C@H](N)C(=O)N1CCC[C@H]1C(=O)N[C@@H](CC(C)C)C(=O)N[C@@H](Cc1cnc[nH]1)C(=O)N[C@@H](CO)C(=O)N[C@@H](CCCNC(=N)N)C(=O)N[C@H](C(=O)N1CCC[C@H]1C(=O)N[C@@H](Cc1ccccc1)C(=O)N1C[C@H](O)C[C@H]1C(=O)O)C(C)C` was 76 nM.

In turn, `CCCC[C@H](N)C(=O)N1CCC[C@H]1C(=O)N(C)[C@@H](CC(C)C)C(=O)N[C@@H](Cc1cnc[nH]1)C(=O)N[C@@H](CO)C(=O)N[C@@H](CCCNC(=N)N)C(=O)N[C@H](C(=O)N1CCC[C@H]1C(=O)N[C@@H](Cc1ccccc1)C(=O)N1CCC[C@H]1C(=O)O)C(C)C` had a Ki of 120 nM. The value for `CCCC[C@H](N)C(=O)N1CCC[C@H]1C(=O)N[C@@H](Cc1ccccc1)C(=O)N[C@@H](Cc1cnc[nH]1)C(=O)N[C@@H](CO)C(=O)N[C@@H](CCCNC(=N)N)C(=O)N[C@H](C(=O)N1CCC[C@H]1C(=O)N[C@@H](Cc1ccccc1)C(=O)N1CCC[C@H]1C(=O)O)C(C)C` (H-[Nle]PFHSRVPFP-OH) was 212 nM; that for `CCCC[C@H](N)C(=O)N1CCC[C@H]1C(=O)N[C@@H](CC(C)C)C(=O)N[C@@H](C)C(=O)N[C@@H](CO)C(=O)N[C@@H](CCCNC(=N)N)C(=O)N[C@H](C(=O)N1CCC[C@H]1C(=O)N[C@@H](Cc1ccccc1)C(=O)N1CCC[C@H]1C(=O)O)C(C)C` (H-[Nle]PLASRVPFP-OH) was 1460 nM; that for `CCCC[C@H](N)C(=O)N1CCC[C@H]1C(=O)N[C@@H](CC(C)C)C(=O)N[C@@H](Cc1ccccc1)C(=O)N[C@@H](CO)C(=O)N[C@@H](CCCNC(=N)N)C(=O)N[C@H](C(=O)N1CCC[C@H]1C(=O)N[C@@H](Cc1ccccc1)C(=O)N1CCC[C@H]1C(=O)O)C(C)C` (H-[Nle]PLFSRVPFP-OH) was over 10000 nM. The same measure for `CCCC[C@H](N)C(=O)N1CCC[C@H]1C(=O)N[C@@H](CC(C)C)C(=O)N[C@@H](Cc1cnc[nH]1)C(=O)N[C@@H](CO)C(=O)N[C@@H](CCCNC(=N)N)C(=O)N[C@@H](C)C(=O)N1CCC[C@H]1C(=O)N[C@@H](Cc1ccccc1)C(=O)N1CCC[C@H]1C(=O)O` (H-[Nle]PLHSRAPFP-OH): 419 nM; for `CCCC[C@H](N)C(=O)N1CCC[C@H]1C(=O)N[C@@H](CC(C)C)C(=O)N[C@@H](Cc1cnc[nH]1)C(=O)N[C@@H](CO)C(=O)N[C@@H](CCCNC(=N)N)C(=O)N[C@@H](CC(C)C)C(=O)N1CCC[C@H]1C(=O)N[C@@H](Cc1ccccc1)C(=O)N1CCC[C@H]1C(=O)O` (H-[Nle]PLHSRLPFP-OH): 45 nM; for `CCCC[C@H](N)C(=O)N1CCC[C@H]1C(=O)N[C@@H](CC(C)C)C(=O)N[C@@H](Cc1cnc[nH]1)C(=O)N[C@@H](CO)C(=O)N[C@@H](CCCNC(=N)N)C(=O)N[C@H](C(=O)N1CCC[C@H]1C(=O)N[C@@H](C)CCC(=O)O)C(C)C` (H-[Nle]PLHSRVP-{GABA(4S-Me)}): over 10000 nM.

Compound `CCCC[C@H](N)C(=O)N1CCC[C@H]1C(=O)N[C@@H](CC(C)C)C(=O)N[C@@H](Cc1cnc[nH]1)C(=O)N[C@@H](CO)C(=O)N[C@@H](CCCNC(=N)N)C(=O)N[C@H](C(=O)N1CCC[C@H]1C(=O)N[C@H](CC(=O)O)c1ccccc1)C(C)C` (H-[Nle]PLHSRVP-β3hPhg) registered a Ki of 228 nM. The same measure for `CCCC[C@H](N)C(=O)N1CCC[C@H]1C(=O)N[C@@H](CC(C)C)C(=O)N[C@@H](Cc1cnc[nH]1)C(=O)N[C@@H](CO)C(=O)N[C@@H](CCCNC(=N)N)C(=O)N[C@H](C(=O)N1CCC[C@H]1C(=O)N[C@@H](C)C(=O)N1CCC[C@H]1C(=O)O)C(C)C` (H-[Nle]PLHSRVPAP-OH): over 10000 nM; for `CCCC[C@H](N)C(=O)N1CCC[C@H]1C(=O)N[C@@H](CC(C)C)C(=O)N[C@@H](Cc1cnc[nH]1)C(=O)N[C@@H](CO)C(=O)N[C@@H](CCCNC(=N)N)C(=O)N[C@H](C(=O)N1CCC[C@H]1C(=O)N[C@@H](Cc1ccccc1)C(=O)O)C(C)C` (H-[Nle]PLHSRVPF-OH): 128 nM. The same measure for `CCCC[C@H](N)C(=O)N1CCC[C@H]1C(=O)N[C@@H](CC(C)C)C(=O)N[C@@H](Cc1cnc[nH]1)C(=O)N[C@@H](CO)C(=O)N[C@@H](CCCNC(=N)N)C(=O)N[C@H](C(=O)N1CCC[C@H]1C(=O)N[C@@H](Cc1ccccc1)C(=O)N[C@@H](C)C(=O)O)C(C)C` (H-[Nle]PLHSRVPFA-OH): 57 nM; for `CCCC[C@H](N)C(=O)N1CCC[C@H]1C(=O)N[C@@H](CC(C)C)C(=O)N[C@@H](Cc1cnc[nH]1)C(=O)N[C@@H](CO)C(=O)N[C@@H](CCCNC(=N)N)C(=O)N[C@H](C(=O)N1CCC[C@H]1C(=O)N[C@@H](Cc1ccccc1)C(=O)N1Cc2ccccc2C[C@H]1C(=O)O)C(C)C` (H-[Nle]PLHSRVPF[Tic]-OH): 29 nM. For the compound `CCCC[C@H](N)C(=O)N1CCC[C@H]1C(=O)N[C@@H](CC(C)C)C(=O)N[C@@H](Cc1cnc[nH]1)C(=O)N[C@@H](CO)C(=O)N[C@@H](CCCNC(=N)N)C(=O)N[C@H](C(=O)N1CCC[C@H]1C(=O)N[C@@H](Cc1ccccc1)C(=O)N1CCC[C@@]1(Cc1ccccc1)C(=O)O)C(C)C` (H-[Nle]PLHSRVPF[X1]-OH), the Ki was determined as 916 nM.

Compound `CCCC[C@H](N)C(=O)N1CCC[C@H]1C(=O)N[C@@H](CC(C)C)C(=O)N[C@@H](Cc1cnc[nH]1)C(=O)N[C@@H](CO)C(=O)N[C@@H](CCCNC(=N)N)C(=O)N[C@H](C(=O)N1CCC[C@H]1C(=O)N[C@@H](Cc1ccc(OCc2ccccc2)cc1)C(=O)O)C(C)C` (H-[Nle]PLHSRVPY(Bn)-OH) registered a Ki of 92 nM. On to `CCCC[C@H](N)C(=O)N1CCC[C@H]1C(=O)N[C@@H](CC(C)C)C(=O)N[C@@H](Cc1cnc[nH]1)C(=O)N[C@@H](CO)C(=O)N[C@@H](CCCNC(=N)N)C(=O)N[C@H](C(=O)N1CCC[C@H]1C(=O)N[C@@H](Cc1ccc(OCc2ccccc2)cc1)C(=O)N1CCC[C@H]1C(=O)O)C(C)C` (H-[Nle]PLHSRVPY(Bn)P-OH), for which the Ki was over 10000 nM.

Compound `CCCC[C@H](N)C(=O)N1CCC[C@H]1C(=O)N[C@@H](CC(C)C)C(=O)N[C@@H](Cc1cnc[nH]1)C(=O)N[C@@H](CO)C(=O)N[C@@H](CCCNC(=N)N)C(=O)N[C@H](C(=O)N1CCC[C@H]1C(=O)N[C@@H](Cc1cccc2ccccc12)C(=O)O)C(C)C` (H-[Nle]PLHSRVP[1Nal]-OH) had a Ki of 94 nM.

The compound `CCCC[C@H](N)C(=O)N1CCC[C@H]1C(=O)N[C@@H](CC(C)C)C(=O)N[C@@H](Cc1cnc[nH]1)C(=O)N[C@@H](CO)C(=O)N[C@@H](CCCNC(=N)N)C(=O)N[C@H](C(=O)N1CCC[C@H]1C(=O)N[C@@H](Cc1ccc(-c2ccccc2)cc1)C(=O)N1CCC[C@H]1C(=O)O)C(C)C` (H-[Nle]PLHSRVP[Bip]P-OH) returned a Ki of over 10000 nM. The same measure for `CCCC[C@H](N)C(=O)N1CCC[C@H]1C(=O)N[C@@H](CC(C)C)C(=O)N[C@@H](Cc1cnc[nH]1)C(=O)N[C@@H](CO)C(=O)N[C@@H](CCCNC(=N)N)C(=O)N[C@H](C(=O)N1CCC[C@H]1C(=O)N[C@@H](Cc1ccc(C(=O)c2ccccc2)cc1)C(=O)O)C(C)C` (H-[Nle]PLHSRVP[Bpa]-OH): 48 nM; for `CCCC[C@H](N)C(=O)N1CCC[C@H]1C(=O)N[C@@H](CC(C)C)C(=O)N[C@@H](Cc1cnc[nH]1)C(=O)N[C@@H](CO)C(=O)N[C@@H](CCCNC(=N)N)C(=O)N[C@H](C(=O)N1CCC[C@H]1C(=O)N[C@@H](Cc1ccc(C(=O)c2ccccc2)cc1)C(=O)N1CCC[C@H]1C(=O)O)C(C)C` (H-[Nle]PLHSRVP[Bpa]P-OH): over 10000 nM. The same measure for `CCCC[C@H](N)C(=O)N1CCC[C@H]1C(=O)N[C@@H](CC(C)C)C(=O)N[C@@H](Cc1cnc[nH]1)C(=O)N[C@@H](CO)C(=O)N[C@@H](CCCNC(=N)N)C(=O)N[C@H](C(=O)NC1(C(=O)N[C@@H](Cc2ccccc2)C(=O)O)CC1)C(C)C` (H-[Nle]PLHSRV[Ac3c]F-OH): over 10000 nM; for `CCCC[C@H](N)C(=O)N1CCC[C@H]1C(=O)N[C@@H](CC(C)C)C(=O)N[C@@H](Cc1cnc[nH]1)C(=O)N[C@@H](CO)C(=O)N[C@@H](CCCNC(=N)N)C(=O)N[C@H](C(=O)NC(C)(C)C(=O)N[C@@H](Cc1ccccc1)C(=O)O)C(C)C` (H-[Nle]PLHSRV[Aib]F-OH): over 10000 nM; for `CCCC[C@H](N)C(=O)N1CCC[C@H]1C(=O)N[C@@H](CC(C)C)C(=O)N[C@@H](Cc1cnc[nH]1)C(=O)N[C@@H](CO)C(=O)N[C@@H](CCCNC(=N)N)C(=O)N[C@H](C(=O)N1CC[C@H]1C(=O)N[C@@H](Cc1ccccc1)C(=O)O)C(C)C` (H-[Nle]PLHSRV[Aze]F-OH): 159 nM. The value for `CCCC[C@H](N)C(=O)N1CCC[C@H]1C(=O)N[C@@H](CC(C)C)C(=O)N[C@@H](Cc1cnc[nH]1)C(=O)N[C@@H](CO)C(=O)N[C@@H](CCCNC(=N)N)C(=O)N[C@H](C(=O)N1CCCC[C@H]1C(=O)N[C@@H](Cc1ccccc1)C(=O)O)C(C)C` (H-[Nle]PLHSRV[Pip]F-OH) was 186 nM. `CCCC[C@H](N)C(=O)N1CCC[C@H]1C(=O)N[C@@H](CC(C)C)C(=O)N[C@@H](Cc1cnc[nH]1)C(=O)N[C@@H](CO)C(=O)N[C@@H](CCCNC(=N)N)C(=O)NC1(C(=O)N2CCC[C@H]2C(=O)N[C@@H](Cc2ccccc2)C(=O)N2CCC[C@H]2C(=O)O)CC1` (H-[Nle]PLHSR[Ac3c]PFP-OH) displayed a Ki of over 10000 nM.
